Experimental data: ChEMBL document CHEMBL5705893, “Targeting the mitotic checkpoint for cancer therapy with NMS-P715, an inhibitor of MPS1 kinase” (Cancer Res, 2010)
Active and inactive are the calls of the source. The rule behind the calls is not given here.

Tests used:
[1] = biological target: RAC-alpha serine/threonine-protein kinase (Homo sapiens, UniProt P31749); assay: Inhibition of recombinant AKT1 (unknown origin)
[2] = Inhibition of recombinant AUR1 (unknown origin); set-up: species or system Homo sapiens
[3] = Inhibition of recombinant AUR2 (unknown origin); set-up: species or system Homo sapiens
[4] = biological target: Serine/threonine-protein kinase Chk1 (Homo sapiens, UniProt O14757); assay: Inhibition of recombinant CHK1 (unknown origin)
Focal adhesion kinase 1 = Focal adhesion kinase 1 (Homo sapiens, UniProt Q05397); assay: Inhibition of recombinant FAK (unknown origin)
[5] = biological target: Tyrosine-protein kinase Lck (Homo sapiens, UniProt P06239); assay: Inhibition of recombinant LCK (unknown origin)
[6] = biological target: Maternal embryonic leucine zipper kinase (Homo sapiens, UniProt Q14680); assay: Inhibition of recombinant MELK (unknown origin)
[7] = biological target: Serine/threonine-protein kinase PLK3 (Homo sapiens, UniProt Q9H4B4); assay: Inhibition of recombinant PLK3 (unknown origin)
[8] = biological target: Non-receptor tyrosine-protein kinase TYK2 (Homo sapiens, UniProt P29597); assay: Inhibition of recombinant TYK 2 (unknown origin)
[9] = biological target: Tyrosine-protein kinase ZAP-70 (Homo sapiens, UniProt P43403); assay: Inhibition of recombinant ZAP70 (unknown origin)
MDA-MB-231 = assay: Antiproliferative activity against human MDA-MB-231 cells assessed as inhibition of cell growth incubated for 72 hrs by celltiter-glo assay; assay type: functional, cell-based; conditions: MDA-MB-231, 72 h
MCF7 = assay: Antiproliferative activity against human MCF7 cells assessed as inhibition of cell growth incubated for 72 hrs by celltiter-glo assay; assay type: functional, cell-based; conditions: MCF7, 72 h
Hs-578T = assay: Antiproliferative activity against human Hs-578T cells assessed as inhibition of cell growth incubated for 72 hrs by celltiter-glo assay; assay type: functional, cell-based
KM12 = assay: Antiproliferative activity against human KM12 cells assessed as inhibition of cell growth incubated for 72 hrs by celltiter-glo assay; assay type: functional, cell-based; conditions: KM12, 72 h
A-431 = assay: Antiproliferative activity against human A-431 cells assessed as inhibition of cell growth incubated for 72 hrs by celltiter-glo assay; assay type: functional, cell-based; conditions: A-431, 72 h
NCI-H23 = assay: Antiproliferative activity against human NCI-H23 cells assessed as inhibition of cell growth incubated for 72 hrs by celltiter-glo assay; assay type: functional, cell-based; conditions: NCI-H23, 72 h
NCI-H889 = assay: Antiproliferative activity against human NCI-H889 cells assessed as inhibition of cell growth incubated for 72 hrs by celltiter-glo assay; assay type: functional, cell-based; conditions: NCI-H889, 72 h
RERF-LC-AI = assay: Antiproliferative activity against human RERF-LC-AI cells assessed as inhibition of cell growth incubated for 72 hrs by celltiter-glo assay; assay type: functional, cell-based
NCI-H2126 = assay: Antiproliferative activity against human NCI-H2126 cells assessed as inhibition of cell growth incubated for 72 hrs by celltiter-glo assay; assay type: functional, cell-based; conditions: NCI-H2126, 72 h
SK-LU-1 = assay: Antiproliferative activity against human SK-LU-1 cells assessed as inhibition of cell growth incubated for 72 hrs by celltiter-glo assay; assay type: functional, cell-based; conditions: SK-LU-1, 72 h
SU-DHL-6 = assay: Antiproliferative activity against human SU-DHL-6 cells assessed as inhibition of cell growth incubated for 72 hrs by celltiter-glo assay; assay type: functional, cell-based; conditions: SU-DHL-6, 72 h
SK-MEL-2 = assay: Antiproliferative activity against human SK-MEL-2 cells assessed as inhibition of cell growth incubated for 72 hrs by celltiter-glo assay; assay type: functional, cell-based; conditions: SK-MEL-2, 72 h
UACC-257 = assay: Antiproliferative activity against human UACC-257 cells assessed as inhibition of cell growth incubated for 72 hrs by celltiter-glo assay; assay type: functional, cell-based; conditions: UACC-257, 72 h
SK-MEL-28 = assay: Antiproliferative activity against human SK-MEL-28 cells assessed as inhibition of cell growth incubated for 72 hrs by celltiter-glo assay; assay type: functional, cell-based; conditions: SK-MEL-28, 72 h
SK-MEL-5 = assay: Antiproliferative activity against human SK-MEL-5 cells assessed as inhibition of cell growth incubated for 72 hrs by celltiter-glo assay; assay type: functional, cell-based; conditions: SK-MEL-5, 72 h
U-266 = assay: Antiproliferative activity against human U-266 cells assessed as inhibition of cell growth incubated for 72 hrs by celltiter-glo assay; assay type: functional, cell-based; conditions: U-266, 72 h
[10] = Antiproliferative activity against human GM13705 cells assessed as inhibition of cell growth incubated for 72 hrs by celltiter-glo assay; assay type: functional, cell-based; conditions: GM13705, 72 h
[11] = Antiproliferative activity against human GM14788 cells assessed as inhibition of cell growth incubated for 72 hrs by celltiter-glo assay; assay type: functional, cell-based; conditions: GM14788, 72 h
U2OS [12] = assay: Antiproliferative activity against human U2OS cells assessed as inhibition of cell growth incubated for 72 hrs by celltiter-glo assay; assay type: functional, cell-based
OVCAR-8 = assay: Antiproliferative activity against human OVCAR-8 cells assessed as inhibition of cell growth incubated for 72 hrs by celltiter-glo assay; assay type: functional, cell-based; conditions: OVCAR-8, 72 h
SK-OV-3 = assay: Antiproliferative activity against human SK-OV-3 cells assessed as inhibition of cell growth incubated for 72 hrs by celltiter-glo assay; assay type: functional, cell-based; conditions: SK-OV-3, 72 h
ACHN = assay: Antiproliferative activity against human ACHN cells assessed as inhibition of cell growth incubated for 72 hrs by celltiter-glo assay; assay type: functional, cell-based
TK-10 = assay: Antiproliferative activity against human TK-10 cells assessed as inhibition of cell growth incubated for 72 hrs by celltiter-glo assay; assay type: functional, cell-based; conditions: TK-10, 72 h
UO-31 = assay: Antiproliferative activity against human UO-31 cells assessed as inhibition of cell growth incubated for 72 hrs by celltiter-glo assay; assay type: functional, cell-based; conditions: UO-31, 72 h
[13] = biological target: Serine/threonine-protein kinase Nek6 (Homo sapiens, UniProt Q9HC98); assay: Inhibition of recombinant NEK6 (unknown origin) preincubated for 60 mins
HeLa [14] = assay: Induction of mitotic arrest in human nocodazole-arrested HeLa cells assessed as delocalization of MAD2 at 1 micromol/L in presence of MG132; assay type: functional, cell-based; conditions: dose 1.0 µmol/L
HeLa [15] = assay: Effect on HEC1 level in human nocodazole-arrested HeLa cells at 1 micromol/L in presence of MG132; assay type: functional, cell-based; conditions: dose 1.0 µmol/L
U2OS [16] = assay: Induction of mitotic arrest in human U2OS cells expressing YFP alpha-tubulin assessed as chromosome misalignment in metaphase incubated for 1 hr by DAPI staining based confocal microscopic analysis; assay type: functional, cell-based
[17] = Cmax in Athymic nu-nu mouse at 10 mg/kg, iv measured upto 24 hrs by LC-MS/MS analysis; assay type: ADME, organism-based; conditions: in vivo
[18] = Half life in Athymic nu-nu mouse at 10 mg/kg, iv measured upto 24 hrs by LC-MS/MS analysis; assay type: ADME, organism-based; conditions: in vivo
[19] = Half life in Athymic nu-nu mouse at 100 mg/kg, po measured upto 24 hrs by LC-MS/MS analysis; assay type: ADME, organism-based; conditions: in vivo
[20] = Oral bioavailability in Athymic nu-nu mouse at 100 mg/kg measured upto 24 hrs by LC-MS/MS analysis; assay type: ADME, organism-based; conditions: in vivo
A-375 = assay: Antitumor activity against human A-375 cells xenografted in Athymic nu-nu nude mouse assessed as tumor growth inhibition at 100 mg/kg, po measured after 10 days; assay type: functional; conditions: A-375, 240 h, time 10 day, read-out: TGI

Chain of Tyrosine-protein kinase Lck (P06239 whole entry): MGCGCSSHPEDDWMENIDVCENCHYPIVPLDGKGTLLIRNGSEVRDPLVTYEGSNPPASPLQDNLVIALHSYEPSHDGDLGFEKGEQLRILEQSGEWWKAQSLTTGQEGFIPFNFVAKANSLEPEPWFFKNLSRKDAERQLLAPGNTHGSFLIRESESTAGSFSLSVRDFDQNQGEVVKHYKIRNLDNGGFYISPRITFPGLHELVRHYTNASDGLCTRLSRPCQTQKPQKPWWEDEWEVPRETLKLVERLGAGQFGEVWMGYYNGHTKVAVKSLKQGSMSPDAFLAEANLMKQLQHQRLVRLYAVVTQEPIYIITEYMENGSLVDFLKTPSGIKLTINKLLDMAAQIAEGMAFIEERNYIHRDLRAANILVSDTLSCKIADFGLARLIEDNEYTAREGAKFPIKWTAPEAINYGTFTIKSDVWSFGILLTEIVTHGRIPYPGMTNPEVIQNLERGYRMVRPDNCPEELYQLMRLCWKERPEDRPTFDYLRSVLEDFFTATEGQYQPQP
Chain of Focal adhesion kinase 1 (Q05397 whole entry): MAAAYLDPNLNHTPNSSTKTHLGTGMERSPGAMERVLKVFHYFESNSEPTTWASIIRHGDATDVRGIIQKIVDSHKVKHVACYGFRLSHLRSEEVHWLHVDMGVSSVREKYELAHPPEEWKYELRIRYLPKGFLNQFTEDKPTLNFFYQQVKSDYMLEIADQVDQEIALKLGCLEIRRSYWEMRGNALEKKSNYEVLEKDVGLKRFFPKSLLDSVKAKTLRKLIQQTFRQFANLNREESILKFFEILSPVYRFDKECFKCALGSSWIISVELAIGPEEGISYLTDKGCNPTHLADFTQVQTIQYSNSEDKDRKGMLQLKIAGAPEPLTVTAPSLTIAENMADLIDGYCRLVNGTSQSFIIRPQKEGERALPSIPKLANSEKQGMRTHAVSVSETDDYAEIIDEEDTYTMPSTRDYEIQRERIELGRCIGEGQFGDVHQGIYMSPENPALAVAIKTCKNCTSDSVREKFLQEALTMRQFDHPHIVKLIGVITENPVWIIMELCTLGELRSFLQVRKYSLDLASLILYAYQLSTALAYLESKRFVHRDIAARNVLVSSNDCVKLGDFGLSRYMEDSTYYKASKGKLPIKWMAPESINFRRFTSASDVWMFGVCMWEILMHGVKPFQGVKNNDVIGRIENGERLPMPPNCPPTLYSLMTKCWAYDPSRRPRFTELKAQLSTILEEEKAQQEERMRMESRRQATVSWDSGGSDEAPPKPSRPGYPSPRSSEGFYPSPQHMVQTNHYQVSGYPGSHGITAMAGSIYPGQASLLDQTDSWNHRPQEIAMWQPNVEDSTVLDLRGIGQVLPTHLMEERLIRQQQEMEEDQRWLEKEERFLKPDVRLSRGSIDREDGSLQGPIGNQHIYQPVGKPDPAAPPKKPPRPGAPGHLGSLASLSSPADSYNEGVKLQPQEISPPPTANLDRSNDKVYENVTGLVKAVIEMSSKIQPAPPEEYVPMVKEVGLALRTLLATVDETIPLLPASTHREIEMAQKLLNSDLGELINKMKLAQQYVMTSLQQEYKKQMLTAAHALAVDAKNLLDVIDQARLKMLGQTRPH
Chain of Serine/threonine-protein kinase PLK3 (Q9H4B4 whole entry): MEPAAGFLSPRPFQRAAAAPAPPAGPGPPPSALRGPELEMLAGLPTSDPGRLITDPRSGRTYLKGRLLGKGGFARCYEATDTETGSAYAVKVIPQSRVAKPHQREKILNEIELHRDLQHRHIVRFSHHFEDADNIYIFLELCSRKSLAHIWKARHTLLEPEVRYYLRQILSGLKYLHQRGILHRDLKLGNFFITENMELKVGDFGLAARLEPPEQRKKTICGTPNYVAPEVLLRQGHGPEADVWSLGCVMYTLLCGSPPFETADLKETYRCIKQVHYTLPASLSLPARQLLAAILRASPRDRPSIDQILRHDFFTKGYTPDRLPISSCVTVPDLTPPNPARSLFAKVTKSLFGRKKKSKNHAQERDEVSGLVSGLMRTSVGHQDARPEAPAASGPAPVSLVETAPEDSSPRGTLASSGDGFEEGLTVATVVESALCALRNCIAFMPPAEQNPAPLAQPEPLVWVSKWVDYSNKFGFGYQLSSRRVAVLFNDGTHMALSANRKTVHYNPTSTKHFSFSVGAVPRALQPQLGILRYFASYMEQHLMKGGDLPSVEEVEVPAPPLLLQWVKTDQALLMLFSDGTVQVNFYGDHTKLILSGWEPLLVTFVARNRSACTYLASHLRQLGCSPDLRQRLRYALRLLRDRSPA
Chain of Tyrosine-protein kinase ZAP-70 (P43403 whole entry): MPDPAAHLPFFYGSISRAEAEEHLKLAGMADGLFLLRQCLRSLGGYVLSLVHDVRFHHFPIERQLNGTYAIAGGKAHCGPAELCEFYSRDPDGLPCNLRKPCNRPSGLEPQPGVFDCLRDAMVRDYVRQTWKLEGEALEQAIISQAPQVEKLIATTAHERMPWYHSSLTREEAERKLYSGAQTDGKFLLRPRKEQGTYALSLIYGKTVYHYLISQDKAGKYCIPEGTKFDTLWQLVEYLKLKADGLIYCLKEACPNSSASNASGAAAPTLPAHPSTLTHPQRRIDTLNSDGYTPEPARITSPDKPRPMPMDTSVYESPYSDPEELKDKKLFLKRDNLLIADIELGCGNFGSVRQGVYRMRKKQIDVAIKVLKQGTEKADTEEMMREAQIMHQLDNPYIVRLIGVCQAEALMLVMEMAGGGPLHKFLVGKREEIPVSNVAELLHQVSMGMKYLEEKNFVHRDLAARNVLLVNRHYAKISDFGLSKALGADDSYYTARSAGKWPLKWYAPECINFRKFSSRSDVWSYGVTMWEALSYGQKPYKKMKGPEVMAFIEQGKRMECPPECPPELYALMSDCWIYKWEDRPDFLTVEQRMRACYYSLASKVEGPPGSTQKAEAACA
Chain of Serine/threonine-protein kinase Nek6 (Q9HC98 whole entry): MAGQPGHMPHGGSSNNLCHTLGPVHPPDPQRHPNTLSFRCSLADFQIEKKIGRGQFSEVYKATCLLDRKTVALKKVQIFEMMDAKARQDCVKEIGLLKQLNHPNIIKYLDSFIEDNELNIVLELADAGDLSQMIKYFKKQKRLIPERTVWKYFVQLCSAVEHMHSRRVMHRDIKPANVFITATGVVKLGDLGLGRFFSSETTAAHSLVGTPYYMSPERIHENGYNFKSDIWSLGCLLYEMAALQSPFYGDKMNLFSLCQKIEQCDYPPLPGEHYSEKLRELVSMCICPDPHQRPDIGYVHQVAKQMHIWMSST
Chain of Serine/threonine-protein kinase Chk1 (O14757 whole entry): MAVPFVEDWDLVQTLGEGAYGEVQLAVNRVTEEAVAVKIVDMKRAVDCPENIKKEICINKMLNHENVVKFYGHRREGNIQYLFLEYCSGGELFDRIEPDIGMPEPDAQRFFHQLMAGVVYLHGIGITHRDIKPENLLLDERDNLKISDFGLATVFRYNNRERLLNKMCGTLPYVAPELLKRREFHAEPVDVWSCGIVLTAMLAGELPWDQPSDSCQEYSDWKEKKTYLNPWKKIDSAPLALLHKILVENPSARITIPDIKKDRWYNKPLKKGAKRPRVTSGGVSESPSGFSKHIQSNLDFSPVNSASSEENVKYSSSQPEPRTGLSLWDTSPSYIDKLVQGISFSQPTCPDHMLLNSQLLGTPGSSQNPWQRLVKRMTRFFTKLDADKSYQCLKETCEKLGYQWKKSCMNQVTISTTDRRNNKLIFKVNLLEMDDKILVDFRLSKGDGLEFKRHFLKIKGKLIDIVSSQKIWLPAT
Chain of Non-receptor tyrosine-protein kinase TYK2 (P29597 whole entry): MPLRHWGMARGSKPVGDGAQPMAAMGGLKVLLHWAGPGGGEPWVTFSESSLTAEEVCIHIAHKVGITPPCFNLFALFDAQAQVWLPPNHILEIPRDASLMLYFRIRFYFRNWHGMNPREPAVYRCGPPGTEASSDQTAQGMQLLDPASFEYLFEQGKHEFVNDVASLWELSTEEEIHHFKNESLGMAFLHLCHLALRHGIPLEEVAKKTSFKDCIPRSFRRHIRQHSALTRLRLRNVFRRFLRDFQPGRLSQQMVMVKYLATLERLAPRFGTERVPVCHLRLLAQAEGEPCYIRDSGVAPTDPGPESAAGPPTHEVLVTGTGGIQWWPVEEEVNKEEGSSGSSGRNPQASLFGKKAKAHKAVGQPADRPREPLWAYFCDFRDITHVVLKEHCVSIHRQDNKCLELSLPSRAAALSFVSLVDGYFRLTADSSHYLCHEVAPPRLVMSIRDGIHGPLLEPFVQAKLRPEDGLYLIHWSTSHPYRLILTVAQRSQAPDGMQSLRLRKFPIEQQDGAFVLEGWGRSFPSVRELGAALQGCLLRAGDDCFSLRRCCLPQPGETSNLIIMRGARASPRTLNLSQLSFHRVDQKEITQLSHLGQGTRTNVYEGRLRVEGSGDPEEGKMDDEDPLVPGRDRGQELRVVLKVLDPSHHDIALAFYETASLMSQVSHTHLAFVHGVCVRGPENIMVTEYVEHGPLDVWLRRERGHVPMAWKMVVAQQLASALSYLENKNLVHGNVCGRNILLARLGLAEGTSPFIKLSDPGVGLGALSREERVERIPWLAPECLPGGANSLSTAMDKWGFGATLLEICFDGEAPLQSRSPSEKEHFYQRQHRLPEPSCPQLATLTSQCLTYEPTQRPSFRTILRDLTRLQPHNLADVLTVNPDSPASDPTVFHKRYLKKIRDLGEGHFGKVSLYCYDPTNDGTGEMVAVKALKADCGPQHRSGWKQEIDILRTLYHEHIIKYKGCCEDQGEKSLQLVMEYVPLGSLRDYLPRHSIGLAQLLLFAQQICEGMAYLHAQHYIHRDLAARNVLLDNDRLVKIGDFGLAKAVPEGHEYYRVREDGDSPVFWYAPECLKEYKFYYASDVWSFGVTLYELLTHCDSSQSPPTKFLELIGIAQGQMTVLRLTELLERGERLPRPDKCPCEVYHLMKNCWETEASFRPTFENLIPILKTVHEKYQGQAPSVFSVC

CCc1cccc(CC)c1NC(=O)c1nn(C)c2c1CCc1cnc(Nc3ccc(C(=O)NC4CCN(C)CC4)cc3OC(F)(F)F)nc1-2
IC50 [1]: > 10 µM
IC50 [2]: > 10 µM
IC50 [3]: > 10 µM
IC50 [4]: > 10 µM
IC50 (Focal adhesion kinase 1): > 10 µM
IC50 [5]: > 10 µM
IC50 [6]: 6.01 µM
IC50 [7]: > 10 µM
IC50 [8]: > 10 µM
IC50 [9]: > 10 µM
IC50 (MDA-MB-231): 0.899 µM
IC50 (MCF7): 1.86 µM
IC50 (Hs-578T): 6.64 µM
IC50 (KM12): 0.586 µM
IC50 (A-431): 0.469 µM
IC50 (NCI-H23): 1.22 µM
IC50 (NCI-H889): 1.26 µM
IC50 (RERF-LC-AI): 2.07 µM
IC50 (NCI-H2126): 4.63 µM
IC50 (SK-LU-1): 5 µM
IC50 (SU-DHL-6): 10 µM
IC50 (SK-MEL-2): 1.49 µM
IC50 (UACC-257): 1.87 µM
IC50 (SK-MEL-28): 2.59 µM
IC50 (SK-MEL-5): 4.49 µM
IC50 (U-266): 5.93 µM
IC50 [10]: 10 µM
IC50 [11]: 10 µM
IC50 (U2OS [12]): 2.09 µM
IC50 (OVCAR-8): 1.21 µM
IC50 (SK-OV-3): 4.26 µM
IC50 (ACHN): 0.015 µM
IC50 (TK-10): 1.54 µM
IC50 (UO-31): 3.62 µM
IC50 [13]: < 10 µM
Activity (HeLa [14]): Active
Activity (HeLa [15]): Active
Activity (U2OS [16]): Active
Cmax [17]: 4.79 µM
half-life [18]: 7.65 h
half-life [19]: 16.8 h
bioavailability [20]: 22.6%
inhibition in vivo at 100 mg/kg (A-375): 43%
